Patent US9249116B2, “Enzyme-activating compounds and compositions” (The Board of Trustees of the University of Illinois, priority 2012, dated 2016)

How the values were obtained:
[1] = biological target: T1, procaspase-3 (Homo sapiens, UniProt P42574); assay: Procaspase-3 activity assay (relief of zinc-mediated inhibition, Ac-DEVD-pNA cleavage); assay type: biochemical; conditions: procaspase-3 incubated with […] ZnSO4; method gives compounds at 25 μM
T1 construct: 6xHis (C); made in house; host or cells: Rosetta E. coli
T1 sequence (P42574 1-277): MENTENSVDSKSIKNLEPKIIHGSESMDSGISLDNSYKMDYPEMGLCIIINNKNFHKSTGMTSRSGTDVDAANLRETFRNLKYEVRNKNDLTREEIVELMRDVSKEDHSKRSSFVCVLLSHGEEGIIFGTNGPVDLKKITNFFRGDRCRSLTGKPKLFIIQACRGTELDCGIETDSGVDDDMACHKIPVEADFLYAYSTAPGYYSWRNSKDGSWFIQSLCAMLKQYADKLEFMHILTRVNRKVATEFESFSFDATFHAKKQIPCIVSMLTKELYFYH
Procedure: The six confirmed hits were then evaluated in vitro for their ability to relieve zinc-mediated inhibition of procaspase-3 (Table A). In this experiment, procaspase-3 was incubated with ZnSO4, conditions in which procaspase-3 has no enzymatic activity.
Techniques adapted from Hergenrother and coworkers (Putt et al., Nat Chem Biol 2006, 2, 543-550). A 20 mL volume of an overnight culture of Rosetta E. coli containing the procaspase-3 (wild-type) expression plasmid was seeded into 2 L of LB media containing ampicillin. The culture was grown to an OD600=1.0, at which point protein expression was induced via addition of IPTG (to 1 mM); the culture was allowed to grow for 30 additional minutes. Cells were then harvested (10 minute spins at 10,000×g and re-suspended in NTA binding buffer (300 mM NaCl, 50 mM Tris, 10 mM imidazole, pH 8.0). The cells were lysed on ice via sonication. The cell lysate was then spun at 35,000×g for […] The supernatant was decanted and 1 mL of nickel-NTA resin was added. The cell lysate was incubated for 45 minutes at 4° C. The resin was loaded on a column, washed with 10 mL NTA binding buffer followed by 10 mL NTA wash buffer (300 mM NaCl, 50 mM Tris, 50 mM imidazole, pH 8.0). The proteins were eluted in 0.5 mL fractions with 10 mL of NTA elution buffer (300 mM NaCl, 50 mM Tris, 500 mM imidazole, pH 8.0). Fractions containing protein were pooled and further purified to remove any contaminating zinc by applying the protein to a PD-10 column (GE Healthcare) charged with Caspase Activity Buffer that had been treated with Chelex® resin. The resulting concentration was determined using the Edelhoch method and the molar absorptivity of procaspase-3 of 26150 M^−1 cm^−1. Protein stocks were flash-frozen in liquid nitrogen and stored at −80° C.
In a 384-well plate recombinantly expressed, zinc-free procaspase-3 (wild type, at 1 μM) in Caspase Activity Buffer (50 mM HEPES, 300 mM NaCl, 1.5 mM TCEP, 0.01% TritonX-100) was incubated at 37° C. in the presence of 3.5 μM ZnSO4 and the basal activity was assessed via the addition of Ac-DEVD-pNA (final concentration in well of 200 μM). The absorbance at 405 nm was monitored with a SpectraMax plate reader (Molecular Devices). […] Activity of each treatment was assessed at 5, 20, 40 and 60 minutes via 5-minute kinetic reads. The slope of each data set was used to determine the activity of the protein. Activity was normalized to a percent activity at each time point using a zinc-free sample and a zinc-inhibited sample treated with DMSO.

[2] = system: U-937 cells (human lymphoma); assay: 72 Hour IC50 cell death assay (sulforhodamine B); assay type: cell-based; conditions: U-937, 72 h, read-out: U-937 72 h IC50 (μM)
Procedure: After the synthesis was complete, the biological activity of the compounds was evaluated.
U-937 human lymphoma cells were plated into the wells of 96 well plate at a density of 15,000 cells per well in 99 μL of RPMI 1640 growth media with 10% FBS and 1% pen-strep. To each well was added 1 μL of compound stock solutions in DMSO at varying concentrations such that the cells were treated with concentrations between 0 μM and 100 μM compound. Each concentration was tested in quintuplicate per plate. In each plate 5 wells received 20 μM doxorubicin as a positive death control and 5 wells received 1 μL of DMSO as a negative control.
After the 72 hour incubation period, the plates were analyzed using a Sulforhodamine B assay (Vichai and Kirtikara, Nat Protoc 2006, 1, 1112-1116). Specifically, to each well of the plate 25 μL of a 50% (w/v) solution of trichloroacetic acid in H2O was added and the plates were incubated for 4 hours at 4° C. The plates were then washed gently with water five times. The plates were allowed to air dry after which 100 μL of a 0.057% (w/v) Sulforhodamine B in a 1% (v/v) acetic acid solution was added to each well for 30 minutes at room temperature. The plates were gently washed 5 times with 1% (v/v) acetic acid and air dried. 200 μL of 10 mM Tris base (pH 10.4) was added to each well and the plates were placed on an orbital shaker for thirty minutes. The level of SRB was quantified fluorometrically at excitation and emission wavelengths 488 and 585 nm, respectively, on a Molecular Devices plate reader and the percent cell death calculated and normalized to the positive control (100% cell death) and the negative control (0% cell death). The percent cell death was averaged for each compound concentration and plotted as a function of compound concentration. The data were fit to a logistical dose response curve using Table curve 2D and the IC50 value was calculated. The experiment was repeated three times and the average of the calculated IC50 values was reported. The standard error of the mean (SEM) was determined and reported for the triplicate experiments.

[3] = Liver microsome stability assay; assay type: in vitro ADME; conditions: rat liver microsomes, 10 μM, LC/MS
Procedure: FIG. 4. Liver Microsome Stability Assay. Compounds (10 μM) incubated with liver microsomes for 3 h and quenched with MeCN containing internal standard, analyzed by LC/MS (280 nm). Next, the metabolic stability of the compounds was evaluated in rat liver microsomes. The compounds were evaluated for 3 hours at 10 μM, and the metabolites were observed by LC/MS.

[4] = system: mice; assay: Assessment of toxicity in vivo; conditions: mouse, in vivo
From the text: The level of toxicity was rated on a scale of 0 (no observable adverse effect) to 3 (severe toxicity, almost fatal).

Procaspase-3 (% Activity at […]) [1] | RLM 3 h % Stability ([3]; listed as 2 (S-PAC-1)) | SMILES | IC50 [2] | RLM 3 h % Stability [3] | Mouse Toxicity [4]
60 ± 2.4% | – | CCc1ccc(CN2CCN(CC(=O)N/N=C/c3cc(C(C)(C)C)cc(C(C)(C)C)c3O)CC2)cc1 [3{28,7}] | – | – | –
4 ± 0.6% | 84 ± 0% | C=CCc1cccc(/C=N/NC(=O)CN2CCN(Cc3ccc(S(N)(=O)=O)cc3)CC2)c1O [S-PAC-1, reference compound] | – | reasonably stable | –

SMILES | Procaspase-3 (% Activity at […]) [1] | RLM 3 h % Stability ([3]; listed as 2 (S-PAC-1)) | IC50 [2] | RLM 3 h % Stability [3] | Mouse Toxicity [4]
C=CCc1cccc(/C=N/NC(=O)CN2CCN(Cc3ccccc3)CC2)c1O [PAC-1, Procaspase-Activating Compound 1, reference compound] | 42 ± 1.8% | – | 10.2 ± 0.3 µM | 38 ± 2% | 3
